Our source for the inhibition and IC50 values is US11142526B2, “Spirocycle compounds and methods of making and using same” (H. Lundbeck A/S, priority 2017, dated 2021).

The target of experiment [1] is MAGL (Mus musculus (Mouse), UniProt O35678). Kind of experiment: In vitro competitive activity-based protein profiling, mouse brain proteome. The format is biochemical. The note with it: for inhibition at 1 µM: mouse; for IC50: mouse brain.
Experiment [2] deals with MAGL (Homo sapiens (Human), UniProt Q99685). Description: In vitro competitive activity-based protein profiling (gel-based, FP-Rh or HT-01 probe). The format is biochemical. As for the experimental part: In Vitro Competitive Activity-Based Protein Profiling.
Proteomes (human prefrontal cortex or cell membrane fractions) (50 μL, 1.0 mg/mL total protein concentration) were preincubated with varying concentrations of inhibitors at 37° C. After 30 min, FP-Rh or HT-01 (1.0 μL, 50 μM in DMSO) was added and the mixture was incubated for another 30 min at room temperature. Reactions were quenched with SDS loading buffer (15 μL—4×) and run on SDS-PAGE.

Setting [3] is: human PC3, read-out: MAGL % Inhibition at 1 μM (human PC3).
Setting [4] is: human PFC (prefrontal cortex), read-out: MAGL % Inhibition at 1 μM (human PFC).
Setting [5] is: human PC3, read-out: MAGL Human PC3 (IC50).

Structures are written as SMILES. Read-outs that look alike come from different tables or passages of the source. Where only a bound is given, the exact number is not on record here.

MAGL (Mus musculus (Mouse), UniProt O35678), sequence (O35678 whole entry): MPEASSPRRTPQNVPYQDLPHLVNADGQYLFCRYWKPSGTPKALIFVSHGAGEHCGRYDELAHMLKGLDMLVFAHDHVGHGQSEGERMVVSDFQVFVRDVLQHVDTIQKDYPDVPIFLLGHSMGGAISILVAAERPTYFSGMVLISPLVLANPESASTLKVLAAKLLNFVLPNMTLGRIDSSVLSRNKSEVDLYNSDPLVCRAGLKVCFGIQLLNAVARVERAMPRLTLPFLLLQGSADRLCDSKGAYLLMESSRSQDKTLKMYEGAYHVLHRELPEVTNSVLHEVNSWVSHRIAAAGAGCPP
MAGL (Homo sapiens (Human), UniProt Q99685), sequence (Q99685 whole entry): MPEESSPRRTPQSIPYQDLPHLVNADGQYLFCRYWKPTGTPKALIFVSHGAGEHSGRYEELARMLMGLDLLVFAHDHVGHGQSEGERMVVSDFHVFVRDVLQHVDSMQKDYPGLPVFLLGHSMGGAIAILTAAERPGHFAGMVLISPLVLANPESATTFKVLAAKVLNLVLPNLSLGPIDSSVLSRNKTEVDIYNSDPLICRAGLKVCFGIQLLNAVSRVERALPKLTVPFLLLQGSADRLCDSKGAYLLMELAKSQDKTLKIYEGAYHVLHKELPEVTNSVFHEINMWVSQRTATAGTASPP

Usually inhibition stands for the percentage by which the read-out fell short of the control. Regarding `O=C(OC(C(F)(F)F)C(F)(F)F)N1CCC2(CCCN2C(=O)c2c(C3CC3)nc3cccnn23)CC1` [Example 3, 1,1,1,3,3,3-Hexafluoropropan-2-yl 1-(2-cyclopropylimidazo[1,2-b]pyridazine-3-carbonyl)-1,8-diazaspiro[4.5]decane-8-carboxylate], the inhibition at 1 µM in experiment [1], in experiment [2] (setting [3]) and in experiment [2] (setting [4]) was more than 75% each time.
Broadly, the IC50 is the concentration needed to halve the response being measured. Regarding `O=C(OC(C(F)(F)F)C(F)(F)F)N1CCC2(CCCN2Cc2cnc(N3CCNCC3)s2)CC1` [Example 4, 1,1,1,3,3,3-hexafluoropropan-2-yl 1-((2-(piperazin-1-yl)thiazol-5-yl)methyl)-1,8-diazaspiro[4.5]decane-8-carboxylate], the inhibition at 1 µM in experiment [1] and in experiment [2] (setting [4]) was more than 75% in each case. In experiment [2] (setting [5]), the IC50 is less than 100 nM.
As to `O=C(OC(C(F)(F)F)C(F)(F)F)N1CCC2(CCN(Cc3cccnn3)C2)CC1` [Example 9, 1,1,1,3,3,3-Hexafluoropropan-2-yl 2-(pyridazin-3-ylmethyl)-2,8-diazaspiro[4.5]decane-8-carboxylate], the inhibition at 1 µM in experiment [2] (setting [4]) was more than 75%.
Turning to `O=C(OC(C(F)(F)F)C(F)(F)F)N1CCC2(CCCN2C(=O)c2ncccn2)CC1` [Example 12, 1,1,1,3,3,3-Hexafluoropropan-2-yl 1-(pyrimidine-2-carbonyl)-1,8-diazaspiro[4.5]decane-8-carboxylate], the inhibition at 1 µM in experiment [1] and in experiment [2] (setting [4]) was less than 25% each time.
For `Cc1ccc2sc(C(=O)N3CCCC34CCN(C(=O)OC(C(F)(F)F)C(F)(F)F)CC4)cc2c1` [Example 17, 1,1,1,3,3,3-Hexafluoropropan-2-yl 1-(5-methylbenzo[b]thiophene-2-carbonyl)-1,8-diazaspiro[4.5]decane-8-carboxylate], the inhibition at 1 µM in experiment [1] and in experiment [2] (setting [4]) was more than 75% in each case. In addition, the IC50 in experiment [2] (human PFC (prefrontal cortex), read-out: MAGL Human PFC (IC50)) was less than 100 nM.
For the compound `O=C(OC(C(F)(F)F)C(F)(F)F)N1CCC2(CCCN2C(=O)C(F)(F)c2ncccn2)CC1` [Example 32, 1,1,1,3,3,3-Hexafluoropropan-2-yl 1-(2,2-difluoro-2-(pyrimidin-2-yl)acetyl)-1,8-diazaspiro[4.5]decane-8-carboxylate], the inhibition at 1 µM in experiment [2] (setting [3]) and in experiment [2] (setting [4]) was more than 75% throughout. For the same compound, the IC50 in experiment [2] (setting [5]) is less than 100 nM.
On to `O=C(Cc1nc(C(F)(F)F)ccc1CN1CCCC12CCN(C(=O)OC(C(F)(F)F)C(F)(F)F)CC2)NS(=O)(=O)C1CC1` [Example 35, 1,1,1,3,3,3-Hexafluoropropan-2-yl 1-((2-(2-(cyclopropanesulfonamido)-2-oxoethyl)-6-(trifluoromethyl)pyridin-3-yl)methyl)-1,8-diazaspiro[4.5]decane-8-carboxylate], for which the inhibition at 1 µM in experiment [2] (setting [3]) was more than 75%.
`Cc1c(C(=O)N2CCCC23CCN(C(=O)OC(C(F)(F)F)C(F)(F)F)CC3)sc2ccccc12` [Example 94, 1,1,1,3,3,3-Hexafluoropropan-2-yl 1-(3-methylbenzo[b]thiophene-2-carbonyl)-1,8-diazaspiro[4.5] decane-8-carboxylate]: in experiment [1], the inhibition at 1 µM was more than 75% and the IC50 is less than 100 nM.
The corresponding values for `O=C(OC(C(F)(F)F)C(F)(F)F)N1CCC2(CCCN2C(=O)c2cc3cc(Cl)ccc3s2)CC1` [Example 95, 1,1,1,3,3,3-Hexafluoropropan-2-yl 1-(5-chlorobenzo[b]thiophene-2-carbonyl)-1,8-diazaspiro[4.5] decane-8-carboxylate] are more than 75% and less than 100 nM.
Consider `O=C(OC(C(F)(F)F)C(F)(F)F)N1CCC2(CCCN2C(=O)c2sc3ccccc3c2Cl)CC1` [Example 97, 1,1,1,3,3,3-Hexafluoropropan-2-yl 1-(3-chlorobenzo[b]thiophene-2-carbonyl)-1,8-diazaspiro[4.5] decane-8-carboxylate], for which the inhibition at 1 µM in experiment [1] is more than 75%.
In experiment [1], `O=C(OC(C(F)(F)F)C(F)(F)F)N1CCC2(CCCN2C(=O)c2cc3cccc(C(F)(F)F)c3s2)CC1` [Example 98, 1,1,1,3,3,3-Hexafluoropropan-2-yl 1-(7-(trifluoromethyl)benzo[b]thiophene-2-carbonyl)-1,8-diazaspiro[4.5] decane-8-carboxylate] came in with an inhibition at 1 µM of more than 75% and an IC50 of less than 100 nM.
The corresponding values for `O=C(OC(C(F)(F)F)C(F)(F)F)N1CCC2(CCCN2C(=O)c2cc3cc(F)ccc3s2)CC1` [Example 99, 1,1,1,3,3,3-Hexafluoropropan-2-yl 1-(5-fluorobenzo[b]thiophene-2-carbonyl)-1,8-diazaspiro[4.5] decane-8-carboxylate] are more than 75% and less than 100 nM.
In the case of `O=C(OC(C(F)(F)F)C(F)(F)F)N1CCC2(CCCN2C(=O)c2cc3cc(C(F)(F)F)ccc3[nH]2)CC1` [Example 100, 1,1,1,3,3,3-Hexafluoropropan-2-yl 1-(5-(trifluoromethyl)-1H-indole-2-carbonyl)-1,8-diazaspiro[4.5] decane-8-carboxylate], the inhibition at 1 µM in experiment [1] is more than 75%.
For `O=C(OC(C(F)(F)F)C(F)(F)F)N1CCC2(CCCN2C(=O)c2cc3ccc(F)cc3s2)CC1` [Example 103, 1,1,1,3,3,3-Hexafluoropropan-2-yl 1-(6-fluorobenzo[b]thiophene-2-carbonyl)-1,8-diazaspiro[4.5] decane-8-carboxylate], the inhibition at 1 µM in experiment [1] was more than 75%.
As for `O=C(OC(C(F)(F)F)C(F)(F)F)N1CCC2(CCN(Cc3ccnnc3)C2)CC1` [Example 106, 1,1,1,3,3,3-Hexafluoropropan-2-yl 2-(pyridazin-4-ylmethyl)-2,8-diazaspiro [4.5]decane-8-carboxylate], in experiment [2] (setting [4]), the inhibition at 1 µM is more than 75%.
As for `O=C(OC(C(F)(F)F)C(F)(F)F)N1CCC2(CCCN2C(=O)c2cc3cc(F)ccc3[nH]2)CC1` [Example 107, 1,1,1,3,3,3-Hexafluoropropan-2-yl 1-(5-fluoro-1H-indole-2-carbonyl)-1,8-diazaspiro[4.5] decane-8-carboxylate], in experiment [1], the inhibition at 1 µM is more than 75% and the IC50 is less than 100 nM.
In experiment [1], `Cc1cccc2cc(C(=O)N3CCCC34CCN(C(=O)OC(C(F)(F)F)C(F)(F)F)CC4)[nH]c12` [Example 108, 1,1,1,3,3,3-Hexafluoropropan-2-yl 1-(7-methyl-1H-indole-2-carbonyl)-1,8-diazaspiro[4.5] decane-8-carboxylate] showed an inhibition at 1 µM of more than 75% and an IC50 of less than 100 nM.
On to `O=C(OC(C(F)(F)F)C(F)(F)F)N1CCC2(CCCN2C(=O)c2cc3cc(Cl)c(Cl)cc3[nH]2)CC1` [Example 111, 1,1,1,3,3,3-Hexafluoropropan-2-yl 1-(5,6-dichloro-1H-indole-2-carbonyl)-1,8-diazaspiro[4.5] decane-8-carboxylate], for which, in experiment [1], the inhibition at 1 µM is more than 75% and the IC50 was less than 100 nM.
As to `O=C(OC(C(F)(F)F)C(F)(F)F)N1CCC2(CCCN2C(=O)c2cc3c(s2)CCNC3)CC1` [Example 152, 1,1,1,3,3,3-Hexafluoropropan-2-yl 1-(4,5,6,7-tetrahydrothieno[3,2-c]pyridine-2-carbonyl)-1,8-diazaspiro[4.5] decane-8-carboxylate], in experiment [2] (setting [5]), the IC50 was less than 100 nM.
As for `O=C(OC(C(F)(F)F)C(F)(F)F)N1CCC2(CCCN2C(=O)c2nc3n(n2)CCCN3)CC1` [Example 153, 1,1,1,3,3,3-Hexafluoropropan-2-yl 1-(4,5,6,7-tetrahydro-[1,2,4]triazolo[1,5-a]pyrimidine-2-carbonyl)-1,8-diazaspiro[4.5]decane-8-carboxylate], the IC50 in experiment [2] (setting [5]) was less than 100 nM.
For `CC1(NC(=O)c2cn3c(n2)CN(C2CCC2)CC3)CCN(C(=O)OC(C(F)(F)F)C(F)(F)F)CC1` [Example 183, 1,1,1,3,3,3-Hexafluoropropan-2-yl 4-(7-cyclobutyl-5,6,7,8-tetrahydroimidazo[1,2-a]pyrazine-2-carboxamido)-4-methylpiperidine-1-carboxylate], the inhibition at 1 µM in experiment [2] (setting [3]) and in experiment [2] (setting [4]) was more than 75% throughout. The IC50 in experiment [2] (setting [5]) was less than 100 nM.
On to `O=C(OC(C(F)(F)F)C(F)(F)F)N1CCC2(CCCN2C(=O)C(F)(F)c2cnccn2)CC1` [Example 197, 1,1,1,3,3,3-Hexafluoropropan-2-yl 1-(2,2-difluoro-2-(pyrazin-2-yl)acetyl)-1,8-diazaspiro[4.5] decane-8-carboxylate], for which the inhibition at 1 µM in experiment [2] (setting [3]) and in experiment [2] (setting [4]) was more than 75% each time.
In experiment [1], `CC(C)(C)c1cc(CN2CCC3(CCN(C(=O)OC(C(F)(F)F)C(F)(F)F)CC3)C2)n(-c2ccccc2Cl)n1` [Example 217, 1,1,1,3,3,3-Hexafluoropropan-2-yl 2-((3-(t-butyl)-1-(2-chlorophenyl)-1H-pyrazol-5-yl)methyl)-2,8-diazaspiro[4.5]decane-8-carboxylate] yielded an inhibition at 1 µM of more than 75% and an IC50 of less than 100 nM.
In the case of `CC(C)n1cc(CN2CCCC23CCN(C(=O)OC(C(F)(F)F)C(F)(F)F)CC3)c(-c2cc(Cl)cc(Cl)c2)n1` [Example 220, 1,1,1,3,3,3-Hexafluoropropan-2-yl 1-((3-(3,5-dichlorophenyl)-1-isopropyl-1H-pyrazol-4-yl)methyl)-1,8-diazaspiro[4.5]decane-8-carboxylate], in experiment [1], the inhibition at 1 µM was more than 75%.
In experiment [1], `O=C(OC(C(F)(F)F)C(F)(F)F)N1CCC2(CCCN2Cc2cc3cc(Cl)ccc3[nH]2)CC1` [Example 224, 1,1,1,3,3,3-Hexafluoropropan-2-yl 1-((5-chloro-1H-indol-2-yl)methyl)-1,8-diazaspiro[4.5]decane-8-carboxylate] registered an inhibition at 1 µM of more than 75% and a half-maximal inhibitory concentration (IC50) of less than 100 nM.
In turn, `O=C(OC(C(F)(F)F)C(F)(F)F)N1CCC2(CCCN2Cc2cncs2)CC1` [Example 225, 1,1,1,3,3,3-Hexafluoropropan-2-yl 1-(thiazol-5-ylmethyl)-1,8-diazaspiro [4.5]decane-8-carboxylate] yielded an inhibition at 1 µM in experiment [1] of more than 75%.
